Laboratory results reported in patent publication US20250289807A1, “Inhibitors of ROCK2” (Graviton Bioscience BV, priority 2022, published 2025).
≈ marks a conversion by molar mass, not a printed value.

What was measured:
ROCK2 = ROCK2 (Homo sapiens (Human), UniProt O75116); assay: ADP-Glo kinase assay, ROCK2; assay type: biochemical; conditions: 40 μM ATP, 170 μM S6K substrate, 120 min
Experimental: (§1) ADP-Glo kinase assay (Promega). The ADP-Glo™ Kinase Assay is a luminescent ADP detection assay that allows measurement of kinase activity based on the amount of ADP produced during a kinase reaction. The kinase reaction is performed in the presence of ATP, S6K substrate ([…]) and the ROCK kinase in the appropriate Kinase Reaction Buffer (1×). Upon termination of the reaction, the unconsumed ATP is depleted by addition of ADP-Glo™ Reagent. Next, Kinase Detection Reagent is added to convert ADP to ATP and allow the newly synthesized ATP to be measured using a luciferase/luciferin reaction. The luminescence is proportional to the produced ADP and consequently to the kinase activity. The ADP-Glo™ Kinase Assay was performed in a 384 well plate format as follows.
(§2) Kinase Detection Reagent Preparation: The Kinase Detection Buffer was thawed at room temperature (RT). If a precipitate was present, the buffer was incubated at 37° C. with constant swirling for 15 minutes to dissolve the precipitate or the precipitate was removed from the buffer by carefully pipetting the supernatant from the bottle. After equilibrating both the Kinase Detection Buffer and Kinase Detection Substrate to room temperature, the entire volume of Kinase Detection Buffer was transferred into the bottle containing Kinase Detection Substrate to reconstitute the lyophilized substrate, followed by gentile mixing to obtain a homogeneous solution.
(§3) Kinase Reaction Buffer Preparation: Kinase reaction buffer was prepared freshly before each experiment.
(§4) ADP-Glo Reagents Preparation. Three mixes were prepared on ice before running the assay: • Mix 1—containing ROCK1 or ROCK2 in Kinase Reaction Buffer (1×) • Mix 2—containing S6K peptide in Kinase Reaction Buffer (1×) • Mix 3—containing ATP in Kinase Reaction Buffer (1×)
(§5) The ratios of reagent volumes in the assay were 1:1:2 of kinase reaction to ADP-Glo™ Reagent to Kinase Detection Reagent. For 384-well plates, volumes were: 5 μl of kinase reaction, 5 μl of ADP-Glo™ Reagent and 10 μl of Kinase Detection Reagent.
(§6) Generating a standard curve for conversion of ATP to ADP. To estimate the amount of ADP produced in the kinase reaction, a standard curve that represents the luminescence corresponding to the conversion of ATP to ADP was prepared based on the ATP concentration used in the kinase reaction. These conversion curves represent the amounts of ATP and ADP available in a reaction at the specified conversion percentage ranging from 100% conversion to 0% conversion. The standard samples used to generate an ATP-to-ADP conversion curve are created by combining the appropriate volumes of ATP and ADP stock solutions.
(§7) Each plate contained a positive control (1 μM Comp. A for ROCK2 and 1 μM RKI-1447 for ROCK1); a vehicle control (1% DMSO); a blank control (kinase reaction buffer (1×)); a low control (substrate and ATP, without kinase); and an autophosphorylation control (kinase and ATP, without substrate). Test and reference compounds were diluted in 100% DMSO to obtain 10 mM stock solutions. Each compound was tested in 8-serial dilutions in duplicate. The final concentration of DMSO in the reaction was 1% (up to 50 nL).
(§8) 5 μl/well Kinase Reaction Buffer (1×) was dispensed to blank control wells. 2 μl/well Kinase Reaction Buffer (1×) was dispensed to control without protein (low control) and without substrate (autophosphorylation) wells. The plate was sealed with adhesive film followed by a short spin (1 min, 1000 rpm).
(§9) 2 μl/well kinase (2.5×) solution was dispensed into relevant wells of the assay plate. The plate was sealed with adhesive film followed by a short spin (1 min, 1000 rpm).
(§10) The plate was sealed with adhesive film followed by a short spin (1 min, 1000 rpm).
(§11) 1 μl/well ATP (5×) solution was dispensed into relevant wells of the assay plate. The final volume of reaction was […]. The plate was sealed with adhesive film followed by a short spin (1 min, 1000 rpm).

ROCK1 = ROCK1 (Homo sapiens (Human), UniProt Q13464); assay: ADP-Glo kinase assay, ROCK1; assay type: biochemical; conditions: 10 μM ATP, 170 μM S6K substrate, 120 min
Chain of ROCK1 (Q13464 whole entry): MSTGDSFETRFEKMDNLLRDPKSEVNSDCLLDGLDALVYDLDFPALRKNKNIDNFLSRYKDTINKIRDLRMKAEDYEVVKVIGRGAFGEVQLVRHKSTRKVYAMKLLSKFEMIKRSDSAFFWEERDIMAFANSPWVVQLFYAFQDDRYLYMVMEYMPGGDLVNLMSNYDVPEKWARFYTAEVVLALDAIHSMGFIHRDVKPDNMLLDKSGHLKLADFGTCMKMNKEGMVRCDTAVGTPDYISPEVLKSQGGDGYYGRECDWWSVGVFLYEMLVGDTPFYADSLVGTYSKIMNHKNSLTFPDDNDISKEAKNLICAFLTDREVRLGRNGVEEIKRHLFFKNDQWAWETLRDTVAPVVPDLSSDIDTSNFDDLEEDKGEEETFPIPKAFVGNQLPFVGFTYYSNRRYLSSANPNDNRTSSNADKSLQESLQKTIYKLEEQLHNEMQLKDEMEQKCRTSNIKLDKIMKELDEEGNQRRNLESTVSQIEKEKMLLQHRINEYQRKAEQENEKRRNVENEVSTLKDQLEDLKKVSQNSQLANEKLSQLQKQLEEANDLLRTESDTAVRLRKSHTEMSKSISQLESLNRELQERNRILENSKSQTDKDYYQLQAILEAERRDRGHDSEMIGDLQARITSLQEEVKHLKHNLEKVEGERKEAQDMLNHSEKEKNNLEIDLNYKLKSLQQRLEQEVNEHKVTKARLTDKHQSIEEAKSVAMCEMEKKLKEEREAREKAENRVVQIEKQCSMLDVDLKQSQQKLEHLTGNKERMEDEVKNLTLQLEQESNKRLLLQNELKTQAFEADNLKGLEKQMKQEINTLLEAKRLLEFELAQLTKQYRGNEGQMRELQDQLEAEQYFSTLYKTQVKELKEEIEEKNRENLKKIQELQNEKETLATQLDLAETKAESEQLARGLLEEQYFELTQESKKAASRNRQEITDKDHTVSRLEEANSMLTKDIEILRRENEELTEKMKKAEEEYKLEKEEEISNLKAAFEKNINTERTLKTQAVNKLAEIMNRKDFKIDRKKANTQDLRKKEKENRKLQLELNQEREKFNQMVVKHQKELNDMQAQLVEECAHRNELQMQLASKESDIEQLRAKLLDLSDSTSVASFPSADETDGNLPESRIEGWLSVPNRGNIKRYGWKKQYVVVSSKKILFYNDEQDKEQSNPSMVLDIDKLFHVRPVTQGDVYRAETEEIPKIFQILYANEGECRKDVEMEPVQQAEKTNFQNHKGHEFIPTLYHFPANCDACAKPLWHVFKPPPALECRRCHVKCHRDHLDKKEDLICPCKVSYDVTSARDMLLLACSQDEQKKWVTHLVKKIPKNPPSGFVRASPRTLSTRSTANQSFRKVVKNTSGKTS
Experimental: as §1, §2, §3, §4, §5, §6, §7, §8, §9, §10, §11

Kinetic solubility = assay type: physicochemical; conditions: kinetic from dmso stock
[1] = test system: IL-17 secretion in human CD4+ T cells; assay: IL-17 secretion in Th17-skewed human CD4+ T cells (ELISA); assay type: cell-based; conditions: anti-CD3/28 mAbs, IL-1β (50 ng/mL) and TGF-β (5 ng/mL), 48 hours
Experimental: In this study, peripheral blood CD4^+ T cells were treated with the indicated doses of the ROCK2 inhibitors and then stimulated by anti-CD3/28 mAbs, IL-1β (50 ng/mL) and TGF-β (5 ng/mL) for 48 hours. The supernatants were analyzed for IL-17 by ELISA. One representative of three different experiments is shown.

[2] = test system: STAT3 phosphorylation in human CD4+ T cells; assay: STAT3 phosphorylation in Th17-skewed human CD4+ T cells (Western Blot); assay type: cell-based; conditions: stimulated 2 hours, FIG. 3
Experimental: (§12) In these studies, peripheral blood CD4^+ T cells were treated with indicated doses of inhibitors and then stimulated by anti-CD3/28 mAbs, IL-1β (50 ng/mL) and TGF-β (5 ng/mL) for 2 hours. The cell lysates were prepared and analyzed by Western Blot. One representative of three different experiments is shown.

[3] = test system: pCofilin in human CD4+ T cells; assay: pCofilin in human CD4+ T cells (Western Blot); assay type: cell-based; conditions: stimulated 2 hours, FIG. 4
Experimental: as §12

[4] = test system: human lung fibroblast MRC-5 cells; assay: TGF-β-induced pro-fibrogenic gene expression in MRC-5 fibroblasts (RT-PCR); assay type: cell-based; conditions: MRC-5, TGF-β1 2.5 ng/mL, 48 hours, FIG. 5
Experimental: (§13) ROCKs are activated by small GTPase Rho in response to a variety of profibrotic signals and regulate cytoskeletal dynamics, activation of different down-stream intracellular targets and expression of key profibrotic genes, such as fibronectin, smooth muscle actin (α-SMA) and collagen 3 (Col3A1).
(§14) In these studies, human lung fibroblast MRC-5 cells were acquired from American Type Culture Collection (ATCC) and cultured in MEM supplemented with 10% fetal bovine serum. The cells were seeded in 24-well cell culture plates at 50,000/mL/well. On the following day, the cells were starved in MEM containing 0.5% FBS for overnight. […] Cellular mRNA was isolated and mRNA expression of indicated genes (fibronectin, αSMA and col3A) was analyzed by RT-PCR (FIG. 5). Secreted pro-collagen 1a (Col1A1) in supernatants was measured by ELISA (FIG. 6).

[5] = test system: human lung fibroblast MRC-5 cells; assay: Col1A protein secretion in MRC-5 supernatants (ELISA); assay type: cell-based; conditions: MRC-5, TGF-β1 2.5 ng/mL, 48 hours, FIG. 6
Experimental: as §13, §14

[6] = test system: Human subcutaneous adipocytes; assay: Adipogenesis in primary human adipocytes (Oil Red staining); assay type: cell-based; conditions: adipogenic cocktail, 10 days, Oil Red absorbance, FIG. 7
Experimental: Adipogenesis is a multi-step complex process, progressing from precursor stem cells to adipocytes that synthesize and store fat. […] ROCKs have been implicated in regulation of adipocyte differentiation, however the isoform-specific contribution to adipogenesis and other metabolic pathways is not well characterized. […] In this study, Human subcutaneous adipocytes were grown to confluence before induction to differentiation by adipogenic cocktail (0.1 μM dexamethasone, 1 μM insulin, 200 μM indomethacin, 250 μM isobutyl methylxanthine (IBMX)) in the presence of indicated concentrations of Ex. 1 or Ex. 2 for 10 days. Differentiated cells were stained by Oil Red which was extracted by isopropanol and measured by absorbance at 492 nm.

[7] = test system: mouse 3T3-L1 pre-adipocytes; conditions: cited from earlier work
[8] = test system: human adipose-derived stem cells; conditions: cited from earlier work

Chain of ROCK2 (O75116 whole entry): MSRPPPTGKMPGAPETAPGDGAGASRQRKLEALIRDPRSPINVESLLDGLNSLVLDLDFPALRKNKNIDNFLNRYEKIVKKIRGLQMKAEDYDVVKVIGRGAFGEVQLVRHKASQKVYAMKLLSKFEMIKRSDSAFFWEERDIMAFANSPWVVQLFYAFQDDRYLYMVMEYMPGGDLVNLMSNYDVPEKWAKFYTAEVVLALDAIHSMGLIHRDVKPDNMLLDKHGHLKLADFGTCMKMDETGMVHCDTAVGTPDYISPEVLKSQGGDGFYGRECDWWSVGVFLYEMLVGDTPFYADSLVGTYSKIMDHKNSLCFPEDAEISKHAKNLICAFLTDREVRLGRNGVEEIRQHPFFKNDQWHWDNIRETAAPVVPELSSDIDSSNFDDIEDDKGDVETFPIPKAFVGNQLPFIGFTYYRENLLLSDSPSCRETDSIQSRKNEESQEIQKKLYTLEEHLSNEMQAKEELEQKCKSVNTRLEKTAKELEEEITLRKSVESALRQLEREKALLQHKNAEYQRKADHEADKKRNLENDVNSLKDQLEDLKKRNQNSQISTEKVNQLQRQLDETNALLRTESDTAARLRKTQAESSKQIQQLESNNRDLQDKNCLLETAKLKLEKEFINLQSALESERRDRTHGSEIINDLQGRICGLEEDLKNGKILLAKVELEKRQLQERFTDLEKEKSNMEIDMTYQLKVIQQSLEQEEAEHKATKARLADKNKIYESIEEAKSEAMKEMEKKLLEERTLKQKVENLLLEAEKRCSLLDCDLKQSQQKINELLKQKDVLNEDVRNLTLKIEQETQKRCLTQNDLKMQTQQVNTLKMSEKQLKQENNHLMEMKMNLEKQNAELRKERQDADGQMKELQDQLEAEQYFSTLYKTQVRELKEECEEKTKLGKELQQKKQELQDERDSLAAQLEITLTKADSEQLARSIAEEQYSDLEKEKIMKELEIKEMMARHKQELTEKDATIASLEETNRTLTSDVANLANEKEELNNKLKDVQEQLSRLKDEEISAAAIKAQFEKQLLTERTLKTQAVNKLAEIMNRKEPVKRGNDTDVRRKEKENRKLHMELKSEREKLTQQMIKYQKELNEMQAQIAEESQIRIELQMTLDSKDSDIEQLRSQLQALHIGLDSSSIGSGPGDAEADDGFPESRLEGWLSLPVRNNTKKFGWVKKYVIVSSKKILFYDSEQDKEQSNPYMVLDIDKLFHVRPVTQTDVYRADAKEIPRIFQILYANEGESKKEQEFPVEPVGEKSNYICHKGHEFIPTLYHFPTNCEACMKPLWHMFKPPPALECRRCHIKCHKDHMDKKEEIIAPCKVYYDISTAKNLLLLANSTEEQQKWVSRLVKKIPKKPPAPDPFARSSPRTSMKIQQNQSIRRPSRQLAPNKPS

| SMILES | IC50 (ROCK2) [nM] | IC50 (ROCK1) [µM] | further results |
| --- | --- | --- | --- |
| Cn1c(C(=O)N2CCCC2)cc2ccc(-c3nccc(Nc4ccc(-c5cnc[nH]5)cc4)n3)cc21 [Example 12] | 10000 | 2.28 |  |
| O=C(c1nc2ccc(-c3nccc(Nc4ccc(-c5cn[nH]n5)cc4)n3)cc2[nH]1)N1CC(F)(F)C1 [Example 22] |  | 25.2 |  |
| Cn1c(C(=O)N2CC(F)(F)C2)cc2ccc(-c3nccc(Nc4ccc(-c5cnc[nH]5)cc4)n3)cc21 [Example 1, 2-[2-(3,3-difluoroazetidine-1-carbonyl)-1-methyl-1H-indol-6-yl]-N-[4-(1H-imidazol-5-yl)phenyl]pyrimidin-4-amine] |  | > 50 | solubility kinetic (Kinetic solubility): 2.2 µg/mL (≈ 4.53 µM); EC50 [1]: 838 nM; STAT3 phosphorylation induced by Th17-skewing activation [2]: down-regulate STAT3 phosphorylation; pCofilin [3]: down-regulate pCofilin; TGF-β-induced Col3A1 gene expression [4]: down-regulate dose-dependently; TGF-β-induced fibronectin gene expression [4]: down-regulate dose-dependently; TGF-β-induced α-SMA gene expression [4]: down-regulate dose-dependently; Col1A protein production in supernatants [5]: down-regulate dose-dependently; adipogenesis [6]: down-regulate adipogenesis in a dose-dependent manner |
| C[C@H](NC(=O)c1cc2ccc(-c3nccc(Nc4ccc(-c5cnc[nH]5)cc4)n3)cc2n1CC1COC1)C(F)(F)F [Example 10] |  | 4 |  |
| CN(C)CCn1c(C(=O)N2CCC(F)(F)C2)cc2ccc(-c3nccc(Nc4ccc(-c5cnc[nH]5)cc4)n3)cc21 [Example 13] | 10000 | 4.29 |  |
| C[C@H](NC(=O)c1cc2ccc(-c3nccc(Nc4ccc(-c5cnc[nH]5)cc4)n3)cc2n1CCN(C)C)C(F)(F)F [Example 8] |  | 10.7 |  |
| O=C(c1cc2c(s1)CN(c1nccc(Nc3ccc(-c4c[nH]nn4)cc3)n1)CC2)N1CC(F)(F)C1 [Example 3′, 2-[2-(3,3-difluoroazetidine-1-carbonyl)-4H,5H,6H,7H-thieno[2,3-c]pyridin-6-yl]-N-[4-(1H-1,2,3-triazol-4-yl)phenyl]pyrimidin-4-amine] | 961 | 2.73 |  |
| C[C@H](NC(=O)c1cc2ccc(-c3nccc(Nc4ccc(-c5cnc[nH]5)cc4)n3)cc2n1C)C(F)(F)F [Example 9] |  | 0.746 |  |
| O=C(c1cc2ccc(-c3nccc(Nc4ccc(-c5cn[nH]n5)cc4)n3)cc2o1)N1CC(F)(F)C1 [Example 19] | 10000 | 2.01 |  |
| Cn1c(C(=O)N2CCC(F)(F)C2)cc2ccc(-c3nccc(Nc4ccc(-c5cnc[nH]5)cc4)n3)cc21 [Example 7] |  | 2.1 |  |
| CN(C)C(=O)Cn1c(C(=O)N2CC(F)(F)C2)cc2ccc(-c3nccc(Nc4ccc(-c5cnc[nH]5)cc4)n3)cc21 [Example 4] |  | > 50 |  |
| O=C(c1cc2c(s1)CN(c1nccc(Nc3ccc(-c4cnc[nH]4)cc3)n1)CC2)N1CC2C(C1)C2(F)F (centres unmarked) [Example 23] | 334 | 8.91 |  |
| CC(C)NC(=O)COc1cccc(-c2nc(Nc3ccc4[nH]ncc4c3)c3ccccc3n2)c1 [KD025] |  |  | adipocyte differentiation [7]: down-regulated adipocyte differentiation; adipocyte differentiation [8]: down-regulated adipocyte differentiation |
| CN(C)CCn1c(C(=O)N2CCC(F)(F)C2)cc2ccc(-c3nccc(Nc4ccc(-c5cn[nH]n5)cc4)n3)cc21 [Example 18] |  | 23.2 |  |
| Cn1c(C(=O)N2CC(F)(F)C2)cc2ccc(-c3nccc(Nc4ccc(-c5c[nH]nn5)cc4)n3)cc21 [Example 2, 2-[2-(3,3-difluoroazetidine-1-carbonyl)-1-methyl-1H-indol-6-yl]-N-[4-(1H-1,2,3-triazol-4-yl)phenyl]pyrimidin-4-amine] |  | > 50 | solubility kinetic (Kinetic solubility): 2.69 µg/mL (≈ 5.53 µM); EC50 [1]: 764 nM; STAT3 phosphorylation induced by Th17-skewing activation [2]: down-regulate STAT3 phosphorylation; pCofilin [3]: down-regulate pCofilin; TGF-β-induced Col3A1 gene expression [4]: down-regulate dose-dependently; TGF-β-induced fibronectin gene expression [4]: down-regulate dose-dependently; TGF-β-induced α-SMA gene expression [4]: down-regulate dose-dependently; Col1A protein production in supernatants [5]: down-regulate dose-dependently; adipogenesis [6]: down-regulate adipogenesis in a dose-dependent manner |
| O=C(c1cc2c(s1)CN(c1nccc(Nc3ccc(-c4cnn[nH]4)cc3)n1)CC2)N1CC2C(C1)C2(F)F (centres unmarked) [Example 24] | 207 | 1.22 |  |
| O=C(c1cc2c(s1)CN(c1nccc(Nc3ccc(-c4cnc[nH]4)cc3)n1)CC2)N1CCC(F)(F)C1 [Example 25] |  | 6.85 |  |
| Cn1c(C(=O)N2CC(F)(F)C2)cc2ccc(-c3nccc(Nc4ccc(-c5cn[nH]c5)cc4)n3)cc21 [Comp. A, reference compound] | 2.29 | 3.21 | solubility kinetic (Kinetic solubility): < 1.9 µg/mL |
| CN(C)CCn1c(C(=O)N2CC(F)(F)C2)cc2ccc(-c3nccc(Nc4ccc(-c5cn[nH]n5)cc4)n3)cc21 [Example 15] |  | 0.281 |  |
| Cn1c(C(=O)N2CCCC2)cc2ccc(-c3nccc(Nc4ccc(-c5cn[nH]n5)cc4)n3)cc21 [Example 16] |  | 0.792 |  |
